Measurements as given in US9353096B2, “Substituted phenylcarbamate compounds” (Hoffmann-La Roche Inc., priority 2012, dated 2016).
Where a name gives a salt, the structure may show the parent alone.

These compounds were tested against hTRPA1 (Homo sapiens, UniProt O75762) (assay: Dose response calcium flux (FLIPR) assay, ChanTest hTRPA1-CHO stably transfected cell line, cinnamaldehyde agonist). Settings: CHO-K1 Tet-On hTRPA1 cells, 100 uM cinnamaldehyde agonist, 30 min preincubation.
Assay type: cell-based
Method: Dose Response Assay:ChanTest hTRPA1-CHO Stably Transfected Cell Line
CHO-K1 Tet-On_HOMSA_TRPA1_Clone_20
Growth Media for CHO-K1 Tet-On_HOMSA_TRPA1_Clone_20 • Ham's F-12 with 10% tetracycline-free FBS • 1× penicillin-streptomycin • 1× glutamax • 0.01 mg/ml Blasticidin • 0.40 mg/ml Zeocin • The cell line doubling rate was ˜15 h. […] Experiments were run at 24 h post induction.
Plating Conditions CHOK1/TRPA1 Cells: • Harvested cells with 0.025% trypsin/EDTA. • Resuspended cells in growth media without selection antibiotics. • Measured cell density and diluted to 2.4×10^5 cells/ml in media containing 1 ug/ml Doxycycline Plate 25 ul/well into 384 well black/clear tissue culture-treated plates. • Incubated overnight at 37° C.
Replacement Buffer: Hank's Balanced Salt Solution, 20 mM HEPES along with 0.005% BSA and 2× Probenecid
Dye Loading Buffer: Cal-3 NW Calcium dye was prepared by dissolving the contents of one vial with […] Hank's Balanced Salt Solution containing 20 mM HEPES.
AP-18, stock 10 mM, prepare 3.5× compound dilution in a Compound Buffer (HBSS/20 mM HEPES/0.005% BSA)—final concentration 10 uM.
Preparation of Cinnamaldehyde (Agonist Addition): • FW=132.16 • Specific gravity=1.046 gm/cc • 1.32 gm/1.046 gm/cc=1.26 ml of stock • Add 1.74 ml DMSO=3.3 M stock • Working solution 4.5× (final 100 uM in Compound Buffer: HBSS/20 mM HEPES/0.005% BSA)
Compounds dilutions were prepared from 5 or 10 mM stock (100% DMSO): • Adjustments of volumes and concentrations were made at time of titration to reflect desired final assay concentrations. • Compounds were tested at either 20 μM three folds dilution 11 steps out or 30 μM two folds dilution 11 steps out. • 3 μl of diluted compound were transferred into Weidmann 384-well plate in duplicates side-by-side. • Compound plates were resuspended with 100 ul of HBSS/20 mM HEPES/0.005% BSA buffer (Compound Buffer): • column 1A-H: buffer/DMSO (bk) • column 2A-H: AP-18 (control antagonist for CHOK1 TRPA1 cells) • column 1I-P: ATP (control for CHOK1 teton cells) • column 2I-P: 2APB (control antagonist for CHOK1/TRPM8 cells).
Growth media was removed from the cell plates (20 ul) and 20 μl of the Replacement Buffer was added followed by addition of 25 μl of diluted dye. All three steps were performed using a Plate Washer BioTek 407. The plates were then incubated for 30′ at RT.
After incubation, both the cell and compound plates were brought to the FLIPR and 20 μl of the diluted compounds/antagonist/bk were transferred to the cell plates by the FLIPR. Plates were then incubated for 30′ at room temperature. After 30′ incubation, plates were returned to the FLIPR and 20 μl of 4.5× Cinnamaldehyde was added to the cell plates. During the compound addition as well as agonist addition, fluorescence readings were taken simultaneously from all 384 wells of the cell plate every 1.5 seconds. Five readings were taken to establish a stable baseline, then 20 μl of sample was rapidly (30 ul/sec) and simultaneously added to each well of the cell plate. The fluorescence was continuously monitored before, during and after sample/agonist addition for a total elapsed time of 100 seconds (compound addition) and 120 seconds (agonist addition). Responses (increase in peak fluorescence) in each well following agonist addition was determined. The initial fluorescence reading from each well, prior to ligand stimulation, was used a zero baseline value for the data from that well.

hTRPA1, sequence (O75762 whole entry): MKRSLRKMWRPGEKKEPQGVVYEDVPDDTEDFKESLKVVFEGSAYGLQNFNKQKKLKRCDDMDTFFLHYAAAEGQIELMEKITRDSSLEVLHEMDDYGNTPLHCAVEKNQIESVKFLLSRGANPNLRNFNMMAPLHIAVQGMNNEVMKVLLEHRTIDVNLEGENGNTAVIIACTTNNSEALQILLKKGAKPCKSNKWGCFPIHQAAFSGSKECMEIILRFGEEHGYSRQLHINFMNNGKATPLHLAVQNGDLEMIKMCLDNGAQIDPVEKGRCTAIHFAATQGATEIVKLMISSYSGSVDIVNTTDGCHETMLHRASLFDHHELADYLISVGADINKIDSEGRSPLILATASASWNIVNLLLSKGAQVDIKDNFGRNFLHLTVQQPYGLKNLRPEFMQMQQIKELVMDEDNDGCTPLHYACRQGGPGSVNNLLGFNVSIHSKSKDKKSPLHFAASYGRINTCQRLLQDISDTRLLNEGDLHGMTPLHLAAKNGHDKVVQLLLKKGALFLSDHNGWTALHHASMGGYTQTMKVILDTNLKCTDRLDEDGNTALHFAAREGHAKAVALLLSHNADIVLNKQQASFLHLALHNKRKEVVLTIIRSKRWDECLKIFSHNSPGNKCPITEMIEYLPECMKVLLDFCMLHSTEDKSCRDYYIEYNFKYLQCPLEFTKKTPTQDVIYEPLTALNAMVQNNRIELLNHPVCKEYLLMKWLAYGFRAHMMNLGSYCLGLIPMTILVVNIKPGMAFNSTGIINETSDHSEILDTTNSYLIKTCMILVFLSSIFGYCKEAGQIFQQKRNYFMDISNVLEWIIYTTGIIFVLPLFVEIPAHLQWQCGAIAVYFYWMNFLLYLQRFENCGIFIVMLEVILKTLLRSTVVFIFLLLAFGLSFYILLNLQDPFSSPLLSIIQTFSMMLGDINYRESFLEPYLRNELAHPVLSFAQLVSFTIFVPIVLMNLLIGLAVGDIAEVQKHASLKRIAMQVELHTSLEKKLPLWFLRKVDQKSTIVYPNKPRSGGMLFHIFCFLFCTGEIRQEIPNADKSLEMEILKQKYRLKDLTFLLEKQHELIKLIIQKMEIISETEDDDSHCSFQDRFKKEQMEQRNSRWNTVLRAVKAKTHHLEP

SMILES	IC50 [nM]
O=C(Nc1ccc(Cl)c(F)c1)O[C@@H](CN1CCO[C@H](c2cccc(Cl)c2)C1)C(F)(F)F [Example 7, (4-Chloro-3-fluorophenyl)-carbamic acid (S)-1-[(R)-2-(3-chlorophenyl)-morpholin-4-ylmethyl]-2,2,2-trifluoroethyl ester hydrochloride]	47
O=C(Nc1ccc(Cl)c(F)c1)O[C@@H](CN1CCO[C@@H](c2cccc(Cl)c2)C1)C(F)(F)F [Example 8, (4-Chloro-3-fluorophenyl)-carbamic acid (S)-1-[(S)-2-(3-chlorophenyl)-morpholin-4-ylmethyl]-2,2,2-trifluoroethyl ester hydrochloride]	597
COc1cccc([C@@H]2CN(C[C@H](OC(=O)Nc3ccc(Cl)cc3)C(F)(F)F)CCO2)c1 [Example 14, (4-Chlorophenyl)-carbamic acid (S)-2,2,2-trifluoro-1-[(R)-2-(3-methoxyphenyl)-morpholin-4-ylmethyl]-ethyl ester]	36.1
O=C(Nc1ccc(Cl)cc1)O[C@@H](CN1CCO[C@@H](c2cccc(C(F)(F)F)c2)C1)C(F)(F)F [Example 12, (4-Chlorophenyl)-carbamic acid (S)-2,2,2-trifluoro-1-[(S)-2-(3-trifluoromethylphenyl)-morpholin-4-ylmethyl]-ethyl ester hydrochloride]	108
O=C(Nc1ccc(Cl)cc1)O[C@@H](CN1CCOC(c2ccc(F)c(C(F)(F)F)c2)C1)C(F)(F)F (stereo partly drawn) [Example 2, (4-Chlorophenyl)-carbamic acid (S)-2,2,2-trifluoro-1-[2-(4-fluoro-3-trifluoromethylphenyl)-morpholin-4-ylmethyl]-ethyl ester hydrochloride]	8.5
O=C(Nc1ccc(Cl)cc1)O[C@@H](CN1CCO[C@H](c2ccc(F)c(C(F)(F)F)c2)C1)C(F)(F)F [Example 1, (4-Chlorophenyl)-carbamic acid (S)-2,2,2-trifluoro-1-[(R)-2-(4-fluoro-3-trifluoromethylphenyl)-morpholin-4-ylmethyl]-ethyl ester hydrochloride]	4.91
O=C(Nc1ccc(Cl)c(F)c1)O[C@@H](CN1CCO[C@H](c2ccc(F)c(Cl)c2)C1)C(F)(F)F [Example 5, (4-Chloro-3-fluorophenyl)-carbamic acid (S)-1-[(R)-2-(3-chloro-4-fluorophenyl)-morpholin-4-ylmethyl]-2,2,2-trifluoroethyl ester hydrochloride]	30.7
O=C(Nc1ccc(Cl)c(F)c1)O[C@@H](CN1CCO[C@H](c2ccc(Cl)c(F)c2)C1)C(F)(F)F [Example 4, (4-Chloro-3-fluorophenyl)-carbamic acid (S)-1-[(R)-2-(4-chloro-3-fluorophenyl)-morpholin-4-ylmethyl]-2,2,2-trifluoroethyl ester hydrochloride]	42.4
COc1cccc(C2CN(C[C@H](OC(=O)Nc3ccc(Cl)cc3)C(F)(F)F)CCS2(=O)=O)c1 (stereo partly drawn) [Example 17, (4-Chlorophenyl)-carbamic acid (S)-2,2,2-trifluoro-1-[2-(3-methoxyphenyl)-1,1-dioxo-1λ^6-thiomorpholin-4-ylmethyl]-ethyl ester]	390
O=C(Nc1ccc(Cl)cc1)O[C@@H](CN1CCS(=O)(=O)[C@@H](c2cccc(C(F)(F)F)c2)C1)C(F)(F)F (single isomer, unassigned) [Example 19]	191

Results, then the compound that gave them:

IC50 [nM]	SMILES
34.6	O=C(Nc1ccc(Cl)c(F)c1)O[C@@H](CN1CCO[C@H](c2ccc(C(F)(F)F)cc2)C1)C(F)(F)F [Example 31, (4-Chloro-3-fluorophenyl)carbamic acid (S)-2,2,2-trifluoro-1-[(R)-2-(4-trifluoromethylphenyl)-morpholin-4-ylmethyl]-ethyl ester hydrochloride]
458	Cc1ccc(NC(=O)O[C@@H](CN2CCOC(c3ccc(F)c(F)c3)C2)C(F)(F)F)cc1 (stereo partly drawn) [Example 37, p-Tolylcarbamic acid (S)-1-[2-(3,4-difluorophenyl)-morpholin-4-ylmethyl]-2,2,2-trifluoroethyl ester hydrochloride]
16.9	O=C(Nc1ccc(Cl)c(F)c1)O[C@@H](CN1CCO[C@H](c2cc(Cl)cc(Cl)c2)C1)C(F)(F)F [Example 46, (4-Chloro-3-fluorophenyl)carbamic acid (S)-1-[(R)-2-(3,5-dichlorophenyl)-morpholin-4-ylmethyl]-2,2,2-trifluoroethyl ester hydrochloride]
74.3	O=C(Nc1ccc(Cl)c(F)c1)O[C@@H](CN1CCS(=O)(=O)[C@H](c2cccc(C(F)(F)F)c2)C1)C(F)(F)F [Example 20, (4-Chloro-3-fluorophenyl)-carbamic acid (S)-1-[(R)-1,1-dioxo-2-(3-trifluoromethylphenyl)-1λ^6-thiomorpholin-4-ylmethyl]-2,2,2-trifluoroethyl ester]
2620	CN1CCN(C[C@H](OC(=O)Nc2ccc(Cl)cc2)C(F)(F)F)CC1c1ccccc1 (stereo partly drawn) [Example 27, (4-Chlorophenyl)-carbamic acid (S)-2,2,2-trifluoro-1-(4-methyl-3-phenylpiperazin-1-ylmethyl)-ethyl ester hydrochloride]
3060	O=C(C[C@@H](CN1CCO[C@@H](c2cccc(C(F)(F)F)c2)C1)C(F)(F)F)Nc1ccc(Cl)c(F)c1 [Example 40, (S)—N-(4-chloro-3-fluorophenyl)-4,4,4-trifluoro-3-[(S)-2-(3-trifluoromethylphenyl)-morpholin-4-ylmethyl]-butyramide]
1100	O=C(Nc1ccc(Cl)c(F)c1)O[C@@H](CN1CCS(=O)(=O)[C@@H](c2cccc(C(F)(F)F)c2)C1)C(F)(F)F (single isomer, unassigned) [Example 21]
73.8	O=C(C[C@@H](CN1CCO[C@H](c2cccc(C(F)(F)F)c2)C1)C(F)(F)F)Nc1ccc(Cl)c(F)c1 [Example 39, (S)—N-(4-chloro-3-fluorophenyl)-4,4,4-trifluoro-3-[(R)-2-(3-trifluoromethylphenyl)-morpholin-4-ylmethyl]-butyramide]
4530	CC(=O)N1CCN(C[C@H](OC(=O)Nc2ccc(Cl)cc2)C(F)(F)F)CC1c1ccccc1 (stereo partly drawn) [Example 28, (4-Chlorophenyl)-carbamic acid (S)-1-(4-acetyl-3-phenylpiperazin-1-ylmethyl)-2,2,2-trifluoroethyl ester hydrochloride]
37.6	O=C(Nc1ccc(Cl)c(F)c1)O[C@@H](CN1CCO[C@H](c2ccc(F)c(F)c2)C1)C(F)(F)F [Example 34, (4-Chloro-3-fluorophenyl)-carbamic acid (S)-1-[(R)-2-(3,4-difluorophenyl)-morpholin-4-ylmethyl]-2,2,2-trifluoroethyl ester hydrochloride]
103	CC(C)c1nccc([C@@H]2CN(C[C@H](OC(=O)Nc3ccc(Cl)c(F)c3)C(F)(F)F)CCO2)n1 [Example 25, (4-Chloro-3-fluorophenyl)-carbamic acid (S)-2,2,2-trifluoro-1-[(S)-2-(2-isopropylpyrimidin-4-yl)-morpholin-4-ylmethyl]-ethyl ester hydrochloride]
8.09	O=C(Nc1ccc(Cl)cc1)O[C@@H](CN1CCO[C@H](c2cc(Cl)cc(Cl)c2)C1)C(F)(F)F [Example 45, (4-Chlorophenyl)carbamic acid (S)-1-[(R)-2-(3,5-dichlorophenyl)-morpholin-4-ylmethyl]-2,2,2-trifluoroethyl ester hydrochloride]
